According to patent US20040063660A1, “Diasteriomers of S-adenosyl-l-methionine and uses thereof” (priority 2000, published 2004):

Legend:
[1] = suggested; control of morning sickness during pregnancy; cited from earlier work
[2] = test system: total parenteral nutrition-induced cholestasis; details: rat; cited from earlier work
liver glutathione = details: oral, patients with and without liver disease; cited from earlier work
primary fibromyalgia = details: oral, short-term trial; cited from earlier work
human erythrocytes = details: incubated in vitro with human erythrocytes; cited from earlier work
brain oxidative status = details: chronically administered, rats; cited from earlier work
Alzheimer's disease = details: preliminary study; cited from earlier work
muscarinic receptors = details: rats treated chronically; cited from earlier work
intrahepatic cholestasis = details: oral, intrahepatic cholestasis patients; cited from earlier work
memory = details: treated vs age matched untreated animals, old and young; cited from earlier work
migraines = details: human, in vivo; cited from earlier work
[3] = test system: peripheral occlusive arterial disease; details: patients with peripheral occlusive arterial disease; cited from earlier work
[4] = test system: alcoholic liver cirrhosis; details: oral, vs placebo treated group; cited from earlier work
[5] = test system: tumor necrosis factor alpha; details: cited from earlier work
[6] = test system: S-adenosyl-l-methionine-dependent methyltransferases; details: cited from earlier work
methyltransferases = details: other methyltransferases; cited from earlier work
beta-adrenergic = details: L-form vs D-enantiomer; cited from earlier work
[7] = test system: patients with major depressive episode (DSM-III); assay: open, non-blind study of depression, Hamilton Rating Scale for Depression; format: in vivo, human; details: 400 mg twice daily, 14 days
Protocol: (S,S)-S-adenosyl-l-methionine p-toluene sulfonate 400 mg was administered twice daily in an open, non-blind study of 10 volunteers who gave informed consent. All patients had normal results on pre-study medical examinations, including laboratory examinations. Patients received 400 mg of (S,S)-S-adenosyl-l-methionine p-toluene sulfonate in an enteric-coated tablet form twice daily for 14 days or until remission of depression symptoms. The 10 patients satisfied the DSM-III criteria for a major depressive episode. Patients' symptoms were monitored daily using the Hamilton Rating Scale for Depression. 9 patients completed the study. […] One patient had no change at all.

[8] = test system: nucleolar 2-0-methyltransferase; details: vs (R,S) diasteriomer; cited from earlier work
[9] = enteric-coated tablet, 9 patients completed

## O=C1CCC(N2C(=O)c3ccccc3C2=O)C(=O)N1 (single isomer, unassigned) [D-enantiomer of thalidomide, thalidomide]
[1]
  safety and effect of thalidomide enantiomer in pregnancy: safe and effective sedative

## C[S+](CC[C@H](N)C(=O)[O-])C[C@H]1O[C@@H](n2cnc3c(N)ncnc32)[C@H](O)[C@@H]1O (stereo partly drawn) [S-adenosyl-l-methionine]
[2]
  cholestasis resulting from total parenteral nutrition: able to prevent cholestasis
Liver glutathione
  liver glutathione levels: increases in liver glutathione levels
Primary fibromyalgia
  improvement in primary fibromyalgia: significant improvement
Human erythrocytes
  ATP within the erythrocyte: increases ATP within the cell
Brain oxidative status
  oxidative status in the brain: enhancing anti-oxidative defenses
Alzheimer's disease
  cognitive effect in patients with Alzheimer's disease: cognitive improvement
Muscarinic receptors
  number of muscarinic receptors in the brain: increase the number of muscarinic receptors
Intrahepatic cholestasis
  pruritus and biochemical markers of cholestasis: improvements in both the pruritus as well as the biochemical markers of cholestasis
memory
  performance in eight arm radical maze test versus untreated animals: out-perform
migraines
  benefit in migraines: found to be of benefit
[3]
  blood viscosity: reduce blood viscosity
[4]
  overall mortality and/or progression to liver transplant: 12%
[5]
  amount of tumor necrosis factor alpha secreted by cells: decrease the amount
  damage caused by tumor necrosis factor alpha: attenuates the damage

## C[S@@+](CC[C@@H](N)C(=O)O)C[C@H]1O[C@@H](n2cnc3c(N)ncnc32)[C@H](O)[C@@H]1O [(R,S)-S-adenosyl-l-methionine]
[6]
  inhibition of enzyme-catalyzed transmethylation reactions: potent inhibitor
methyltransferases
  binding relative to (S,S)-S-adenosyl-l-methionine: to the same extent

## CC(C)NCC(O)COc1cccc2ccccc12 (centres unmarked) [propranolol]
beta-adrenergic
  potency relative to the D-enantiomer: 100 times

## O=C1CCC(N2C(=O)c3ccccc3C2=O)C(=O)N1 (single isomer, unassigned) [L-enantiomer, thalidomide]
[1]
  safety and effect of thalidomide enantiomer in pregnancy: potent teratogen

## C[S@@+](CC[C@H](N)C(=O)O)C[C@H]1O[C@@H](n2cnc3c(N)ncnc32)[C@H](O)[C@@H]1O.Cc1ccc(S(=O)(=O)[O-])cc1 [(S,S)-S-adenosyl-l-methionine p-toluene sulfonate]
[7]
  side effects (reported, laboratory or physical examination): No side effects were noted or reported
[7]; [9]
  patients who completed the trial and improved (Hamilton Rating Scale for Depression): Eight of the nine
  patients with no change: One

## C[S@@+](CC[C@H](N)C(=O)O)C[C@H]1O[C@@H](n2cnc3c(N)ncnc32)[C@H](O)[C@@H]1O [(S,S)-S-adenosyl-l-methionine]
[8]
  tightness of enzyme binding relative to (R,S)-S-adenosyl-l-methionine: 10 fold
